Experimental data reported in US20080021002A1, “VITAMIN D COMPOUNDS USED TO STABILIZE KIDNEY TRANSPLANTS” (priority 2000, published 2008).

Columns and labels:
[1] = Effect of calcitriol on CsA and FK506 serum levels and dosages in transplant patients; format: in vivo, human
Source text: Methodology-retrospective analysis: The University of Wisconsin transplant database was screened to identify any kidney and/or kidney-pancreas transplant recipient who received 1,25-dihydroxyvitamin D3 (calcitriol)peri-post-transplant. Clinical and demographic variables were abstracted from the database. Those patients with adequate follow-up data were included in the analysis (≧1year follow-up data following the initiation of calcitriol). Demographic variables included race, age, and nay history of parathyroidectomy as these patients would likely be receiving calcitriol at time of transplantation. The effect of calcitriol treatment on renal function was analyzed using general linear mixed modeling of the change in slope of renal function prior to and following the start of calcitriol therapy. […] Adverse events and hypercalcemia were noted by identifiers in the database and by serum calcium levels as recorded in the database. Hypercalcemia was defined as a serum calcium >10.5 mg/dl. […] Both of these agents have beneficial effects in prolonging allograft function by altering the ability for activated T cells to produce interleukin-2 (IL-2). However, both of these agents are also associated with drug-related nephrotoxicity that is manifested by characteristic histologic changes in the allograft, e.g. tubulointerstitial fibrosis, and loss of allograft function long-term.

MMP 9 mRNA = assay: Semi-quantitative RT-PCR of renal grafts, MMP 9 mRNA; format: in vivo, rat; conditions: all groups vs syngeneic untreated controls, regardless of treatment
Description: FIG. 5 is a set of graphs showing that 1,25-(OH)2D3 Treatment Alters MMP and TIMP Expression . […] S26 was used as the housekeeping gene. […]
(§1) Semi-quantitative Reverse transcription polymerace chain reaction (RT-PCR): Following graft harvest a […] containing both cortex and medulla was snap frozen in liquid nitrogen. Semi-quantitative RT-PCR was performed as described. Little et al. Transplant Int. 12:393-401, 1999. Briefly, samples were homogenized then total RNA extracted with RNAzol B (Tel Test, Inc., Friendswood, Tex.) and reversed transcribed to cDNA according to manufacturer=s instructions (Superscript, Gibco BRL). PCR was performed over the linear range of amplification for both the gene of interest, e.g. TGFβ-1, and the ribosomal protein S26 as a control housekeeping gene. PCR conditions were chosen such that both products were amplified with similar efficiency. The following cycle parameters were employed: denaturing, 94° C. for 60 seconds; annealing, 61° C. for 60 seconds; and extension, 72° C. for 60 seconds. The amount of product was quantified using a phosphoimager (Storm 80) following gel electrophoresis and Vista green detection.

TIMP 1 mRNA = assay: Semi-quantitative RT-PCR of renal grafts, TIMP 1 mRNA; format: in vivo, rat; conditions: all groups vs untreated allograft recipients, regardless of treatment
Description: (§2) FIG. 5 is a set of graphs showing that 1,25-(OH)2D3 Treatment Alters MMP and TIMP Expression . […] S26 was used as the housekeeping gene. […] Fold changes are expressed relative to the allogeneic untreated control.
as §1

MMP 2 protein = assay: Antigen-capture ELISA of renal graft lysates, total MMP 2 protein; format: in vivo, rat; conditions: vs untreated allogeneic group (FIG. 5B); 1,25-(OH)2D3: syngeneic and allogeneic groups; CSA: allogeneic
Description: as §2
(§3) Enzyme Linked Immunoabsorbant Assay (ELISA): TGFβ-1 and MMP 2 levels were quantified by antigen-capture ELISA. […] After blocking with 1× block buffer at 37° C. for 35 minutes 25 ul of cell lysate (diluted 1:10 in the lysis buffer) was added to the wells. A standard curve was generated by performing two fold serial dilutions of the standard active TGFβ-1 antigen (diluted 15.6 pg/ml to 1000 pg/ml, Promega, Inc.) or MMP2 (0.5 ng/ml to 100 ng/ml, R and D Systems). The plate was incubated for 2 hours at RT with shaking and then washed extensively with wash buffer (0.05% Tween 20 in PBS) followed by PBS. The TGFβ-1 ELISA was then developed according to the manufacturer's instruction. For the MMP2 ELISA, biotinylated detection antibody, clone 101721 (25 μL/well at 1.4 ug/ml R and D Systems) was added and incubated at RT (1hour, with shaking). The antibody was biotinylated using a Mini-Biotin-XX Protein Labeling Kit (F-6347) according to manufacturer's instruction (Molecular Probes, Eugene Oreg.). […] Absorbance was measured at 450 nm on a Vmax Kinetic microplate reader (Molecular Devices, Sunnyvale Calif.). […]

bioactive TGFβ-1 = assay: Antigen-capture ELISA of renal graft lysates, bioactive TGFβ-1; format: in vivo, rat; conditions: treated recipients vs untreated allogeneic control grafts
Description: as §3, with “Oreg.). Following further washing, avidin-peroxidase conjugate was added (25 ul/well at 1:5000) for 30 minutes at RT. A color reaction was developed by the addition of 25 ul of the TMB (3, 3′, 5, 5′-tetramethylbenzidine)/[…] substrate solution, (KPL, Gaithersberg, Md.).” for “Oreg.).”

Effect on CsA or FK506 dosages or serum drug levels ([1]; combined analysis of all Group 1 and Group 2 patients): no significant effect
Trends in mean CsA levels or variability in CsA levels ([1]; seven of the 26 Group 1 patients with serial CsA levels): No trends
Structure (SMILES): C=C1/C(=C\C=C2/CCC[C@]3(C)[C@@H]([C@H](C)CCCC(C)(C)O)CC[C@@H]23)C[C@@H](O)C[C@@H]1O [calcitriol, 1,25-dihydroxyvitamin D3]
MMP 9 mRNA (MMP 9 mRNA): increased
TIMP 1 mRNA expression (TIMP 1 mRNA): decreased
Total MMP 2 protein expression (MMP 2 protein): increased
Bioactive TGFβ-1 protein levels (bioactive TGFβ-1): no significant difference
